Reference: patent US20250221930A1, “A COMPOSITION COMPRISING LIPID NANOPARTICLES AND AN ANTIFUNGAL POLYENE” (INSTITUT NATIONAL DE LA SANTÉ ET DE LA RECHERCHE MÉDICALE, priority 2022, published 2025)
In brackets after ≈: the same amount, converted by molar mass. Where two headings read alike, the source gives them in different places.

How the values were obtained:
[1] = test system: Aspergillus fumigatus; assay: EUCAST MICs of AmB, ISA, AmB-loaded LNPs and AmB-ISA-loaded LNPs; type: cell-based; settings: 48 h at 37° C.
Experimental: Briefly, a mass (80-120 mg) of an oil phase consisting of triglycerides (Labrafac®, or tributyrin in different mass ratios, i.e. 100% Labrafac® to 100% tributyrin) was supplemented with AmB (0,025 to 0.2 mg) and ISA (0.25 to 5 mg) and then mixed with 80 to 120 mg of PEG15HS (Solutol HS15®) and 500 to 800 μl of water to form an oil-in-water emulsion. This emulsion was then heated to 85° C., to obtain a water-in-oil emulsion, and then cooled to 40° C. Three such temperature cycles were performed and the system was then fast cooled to 4° C. The formulated nanoparticles were then characterized by size distribution and mean zeta potential measurements. Examples of formulations of LNPs loaded with AmB and AmB-ISA are detailed in Table 5:
Two reference strains (ATCC 16424 and ATCC 204305) and a clinical azole-resistant strain (AfR2) of Aspergillus fumigatus were used.
MICs of AmB in solution, ISA in solution, AmB-loaded LNPs, and AmB-ISA-loaded LNPs were evaluated according to the European Committee on Antimicrobial Susceptibility Testing (EUCAST) guidelines. Briefly, MICs were determined by adding 100 μL of two-fold dilutions of AmB in solution, ISA in solution, AmB-LNPs or AmB-ISA-LNPs (0.008 to 4 mg/L) in 96-well plates. One hundred microliters of a spore suspension at a concentration of 105 spores/mL were added to the wells, and the plates were incubated for 24 h (Mucorales) or 48 h (A. fumigatus) at 37° C. […] Three experiments were performed for each strain.

[2] = test system: L. corymbifera; assay: Checkerboard MICs of AmB, ISA and PEG15HS in solution; type: cell-based, Lichtheimia corymbifera; settings: RPMI, 24 h at 37° C.
Experimental: (§1) AmB minimum inhibitory concentrations (MIC) of each strain of Mucorales was measured in RPMI in the presence of different concentrations of ISA or PEG15HS as described by the EUCAST broth microdilution antifungal susceptibility test methodology with modification for the checkerboard procedure. Checkerboards were performed by adding 100 μL of two-fold dilutions of AmB (0.008 to 4 mg/L) and ISA (0.008 to 4 mg/L) or PEG15HS (0.04 to 2752 mg/L) in 96 well plates. One hundred microliters of a spore suspension at a concentration of 105 spores/mL were added to the wells, and the plates were incubated for 24 h at 37° C. […] Three experiments were performed for each strain.
AmB MIC of each strain of Mucorales was measured in RPMI in the presence of different concentrations of ISA and a constant concentration of PEG15HS (100 times the concentration of AmB) as described by the EUCAST broth microdilution antifungal susceptibility test methodology with modification for the checkerboard procedure. Checkerboards were performed by adding 100 μL of two-fold dilutions of AmB (0.008 to 4 mg/L)+PEG15HS (0.8 to 400 mg/L) and ISA (0.008 to 4 mg/L) in 96 well plates. One hundred microliters of a spore suspension at a concentration of 105 spores/mL were added to the wells, and the plates were incubated for 24 h at 37° C. […] Three experiments were performed for each strain. […]

[3] = test system: human erythrocytes
Experimental: Human blood samples from different healthy volunteers was collected in EDTA tubes and centrifuged at 3000×g for 5 minutes. Plasma was removed and the erythrocytes were washed four times with 2 ml of 0.9% NaCl by centrifugation at 3000×g for 5 minutes.
Erythrocytes were suspended in PBS pH 7.4 and their concentration was adjusted to 5·10^8 cells/mL. Erythrocytes were then incubated with AmB solubilised as a solution or loaded in LNP for 1 hour at 37° C. under shaking, then centrifuged at 3000×g for 5 minutes. Then, 100 μL of the supernatant were transferred in a flat-bottomed transparent 96-well plate and the absorbance was measured at 540 nm. Untreated erythrocytes dispersed in PBS were used as a negative control, and erythrocytes treated by 1% (v/v) of TritonX-100 were used as a positive control. Percentage of hemolysis was calculated using the following equation: 100*(Asample−Acontrol)/(aTritonX−100−Anegative), where Asample is the absorbance measured for each experimental conditions, Anegative and aTritonX-100 are the absorbance of negative and positive controls, respectively.
Sterile Dulbelcc”s phosphate buffered saline (DDPBS, Dominique Dutscher, Bernolsheim, France) pH 7 was also used as a medium to measure the hemolytic activity of AmB.

[4] = test system: Twelve clinical isolates of Mucorales; assay: Checkerboard AmB MIC with surfactant in solution, statements over all isolates; type: cell-based
Experimental: Twelve clinical isolates of Mucorales identified by ARNr sequencing were used: Rhizopus arrhizus (5), Rhizopus microsporus (1), Lichtheimia corymbifera (3), Lichtheimia ramosa (1), Mucor circinelloides (1), Rhizomucor pusillus (1). Isolates were subcultured from frozen stocks (−80° C.) on 75 cm^3 flasks containing 15 mL of Sabouraud dextrose agar (Sigma-Aldrich, St. Quentin Fallavier, France) during 3 days at 37° C. Spores were collected by flooding the flask with 10 ml of sterile water. The suspensions were filtered on nylon filter (Millipore, Carrigtwohill, Ireland) with pore size of 11 μm to remove hyphal elements. The concentration of the spore suspensions was then adjusted in sterile water to obtain inocula of 2×10^5 spores/mL. […]
AmB minimum inhibitory concentrations (MIC) of each strain of Mucorales was measured in RPMI the presence of different concentrations of surfactant as described by the EUCAST broth microdilution antifungal susceptibility test methodology with modification for the checkerboard procedure. […]
In equation 1, MIC0 refers to the AmB MIC measured without surfactants and MIC∞ is the lowest AmB MIC measured in the presence of surfactant. The maximal ratio in AmB MIC decrease defined as maximal efficacy (Emax) was calculated as the ratio of MIC0/MIC∞. […] These parameters were evaluated using WinNonlin software (version 6.2, Certara, NJ, USA) as described by Chauzy et al.

[5] = test system: Lichtheimia corymbifera; assay: Checkerboard AmB MIC with surfactant in solution, inhibitory Emax model; type: cell-based
Experimental: (§2) Twelve clinical isolates of Mucorales identified by ARNr sequencing were used: Rhizopus arrhizus (5), Rhizopus microsporus (1), Lichtheimia corymbifera (3), Lichtheimia ramosa (1), Mucor circinelloides (1), Rhizomucor pusillus (1). Isolates were subcultured from frozen stocks (−80° C.) on 75 cm^3 flasks containing 15 mL of Sabouraud dextrose agar (Sigma-Aldrich, St. Quentin Fallavier, France) during 3 days at 37° C. Spores were collected by flooding the flask with 10 ml of sterile water. The suspensions were filtered on nylon filter (Millipore, Carrigtwohill, Ireland) with pore size of 11 μm to remove hyphal elements. The concentration of the spore suspensions was then adjusted in sterile water to obtain inocula of 2×10^5 spores/mL.
(§3) AmB powder (Sigma-Aldrich) was dissolved in dimethyl sulfoxide to get a stock solution at 8192 mg/L stored at −80° C. for six months. On the day of use, AmB and freshly made surfactant solutions (in RPMI or PBS) were diluted in the same medium (RPMI or PBS) to obtain desired concentrations. Surfactants used (polyethylene glycol (15)-hydroxystearate (also named Solutol® HS15 or Kolliphor® HS 15, or Macrogol 15 Hydroxystearate); polyoxyethylene (10) stearyl ether (Brij® S10); polyoxyethylene (20) stearyl ether (Brij® S20); polyoxyethylene (20) oleyl ether (Brij® 020); and polyoxyethylene (10) cetyl ether (Brij® C10)), which have their chemical structure presented in FIG. 7, were purchased from Sigma-Aldrich.
as §1, with “RPMI” for “RPMI in”, “surfactant” for “ISA or PEG15HS”, “surfactant solutions” for “ISA (0.008 to 4 mg/L) or PEG15HS”
(§4) An inhibitory Emax model (Equation 1) developed by Chauzy et al. (Chauzy, A.; Buyck, J.; de Jonge, B. L. M.; Marchand, S.; Grégoire, N.; Couet, W. Pharmacodynamic Modelling of β-Lactam/β-Lactamase Inhibitor Checkerboard Data: Illustration with Aztreonam-Avibactam. Clin. Microbiol. Infect. 2019, 25, 515.e1-515.e4, doi: 10.1016/j.cmi.2018.11.025) to evaluate the enhancing effect of non-antibiotics molecules on the efficacy of antibiotic against bacteria was used here to describe the average decrease in AmB MIC values (MICsurf) against various Mucorales strains in relation to surfactant concentrations (Csurf).
(§5) In equation 1, MIC0 refers to the AmB MIC measured without surfactants and MIC∞ is the lowest AmB MIC measured in the presence of surfactant. The maximal ratio in AmB MIC decrease defined as maximal efficacy (Emax) was calculated as the ratio of MIC0/MIC∞. EC50 is the concentration of surfactant producing 50% of the Emax and characterizes the potency of the surfactants. These parameters were evaluated using WinNonlin software (version 6.2, Certara, NJ, USA) as described by Chauzy et al.

[6] = test system: Rhizomucor pusillus; assay: as above; type: cell-based; settings: R. pusillus
Experimental: as §2, §3
as §1, with “RPMI” for “RPMI in”, “surfactant” for “ISA or PEG15HS”, “surfactant solutions” for “ISA (0.008 to 4 mg/L) or PEG15HS”
as §4, §5

[7] = test system: Rhizopus arrhizus; assay: as above; type: cell-based
Experimental: as §2, §3
as §1, with “RPMI” for “RPMI in”, “surfactant” for “ISA or PEG15HS”, “surfactant solutions” for “ISA (0.008 to 4 mg/L) or PEG15HS”
as §4, §5

[8] = test system: Lichtheimia ramosa; assay: as above; type: cell-based; settings: L. ramosa
Experimental: as §2, §3
as §1, with “RPMI” for “RPMI in”, “surfactant” for “ISA or PEG15HS”, “surfactant solutions” for “ISA (0.008 to 4 mg/L) or PEG15HS”
as §4, §5

[9] = test system: Mucor circinelloides; assay: as above; type: cell-based; settings: M. circinelloides
Experimental: as §2, §3
as §1, with “RPMI” for “RPMI in”, “surfactant” for “ISA or PEG15HS”, “surfactant solutions” for “ISA (0.008 to 4 mg/L) or PEG15HS”
as §4, §5

[10] = test system: Rhizopus microsporus; assay: as above; type: cell-based; settings: R. microsporus
Experimental: as §2, §3
as §1, with “RPMI” for “RPMI in”, “surfactant” for “ISA or PEG15HS”, “surfactant solutions” for “ISA (0.008 to 4 mg/L) or PEG15HS”
as §4, §5

Structure (SMILES): C[C@@H]1[C@H](O)[C@@H](C)/C=C/C=C/C=C/C=C/C=C/C=C/C=C/[C@H](O[C@@H]2O[C@H](C)[C@@H](O)[C@H](N)[C@@H]2O)C[C@@H]2O[C@](O)(C[C@@H](O)C[C@@H](O)[C@H](O)CC[C@@H](O)C[C@@H](O)CC(=O)O[C@H]1C)C[C@H](O)[C@H]2C(=O)O [AmB, amphotericin B]
- MIC (AmB) ([1]; A. fumigatus R2 (clinical azole-resistant strain AfR2)): 2 µg/mL (≈ 2.16 µM)
- MIC (AmB) ([1]; Aspergillus fumigatus 16 (ATCC 16424)): 2 µg/mL (≈ 2.16 µM)
- MIC of AmB [2]: 1 µg/mL
- hemolysis ([3]; in PBS, 5 to 15 mg/L of AmB): induce hemolysis
- hemolysis ([3]; in RPMI, AmB 15, 30 mg/L): induce hemolysis
- MIC (agent alone) [4]: less than 1 mg/L
- MIC0 (MIC of AmB in the absence of surfactant) ([5]; L. corymbifera 1): 0.36 µg/mL
- MIC0 (MIC of AmB in the absence of surfactant) ([5]; L. corymbifera 2): 0.06 µg/mL
- MIC0 (MIC of AmB in the absence of surfactant) ([5]; L. corymbifera 3): 0.25 µg/mL
- MIC0 (MIC of AmB in the absence of surfactant) [6]: 0.25 µg/mL
- MIC0 (MIC of AmB in the absence of surfactant) ([7]; R. arrhizus 1): 0.28 µg/mL
- MIC0 (MIC of AmB in the absence of surfactant) ([7]; R. arrhizus 2): 0.44 µg/mL
- MIC0 (MIC of AmB in the absence of surfactant) ([7]; R. arrhizus 3): 0.59 µg/mL
- MIC0 (MIC of AmB in the absence of surfactant) ([7]; R. arrhizus 4): 0.61 µg/mL
- MIC0 (MIC of AmB in the absence of surfactant) ([7]; R. arrhizus 5): 0.35 µg/mL
- MIC0 (MIC of AmB in the absence of surfactant) [8]: 0.51 µg/mL
- MIC0 (MIC of AmB in the absence of surfactant) [9]: 0.19 µg/mL
- MIC0 (MIC of AmB in the absence of surfactant) [10]: 0.68 µg/mL
